Results taken from ChEMBL document CHEMBL1158953, “The Structure of Clathrodin, a Novel Alkaloid Isolated from the Caribbean Sea Sponge Agelas clathrodes” (1991).
Values after ≈ are worked out from the molar mass of the structure shown. Active and inactive are the calls of the source. The calls are words filed in the database; no cut-off is given here.

Assays:
Rana temporaria = species on record: Rana temporaria; assay: Inhibition of cholinergic receptor in frog skeletal muscle at 0.1 uM to 1000 uM
CHO-K1 = assay: Cytotoxicity against CHOK1 cells; format: functional; conditions: Cricetulus griseus, read-out: ED50 (the source's name)

Activity (Rana temporaria): Active
SMILES: Nc1ncc(/C=C/CNC(=O)c2ccc[nH]2)[nH]1 [CLATHRODIN]
EC50 (CHO-K1): 1.33 µg/mL (≈ 5.75 µM)
